Measured values taken from PubChem BioAssay AID330 (DTP/NCI, 2004).
“And” between values parts separate entries of the source, which are not always exact repeats. Equal values may be shown once. Inconclusive results and toxic doses are left out. The calls were made as follows: active = survival T/C of 150% or more; inactive = T/C below 125% in these data.

Test system: P388 leukemia ip, CD2F1 mice, survival T/C
Assay: NCI In Vivo Anticancer Drug Screen. Data for tumor model P388 Leukemia (intraperitoneal) in CD2F1 (CDF1) mice
Conditions: endpoint: median survival time, higher = longer survival
In short: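 Mice carrying the transplanted tumor received test compound or vehicle. Survival was recorded in each group, and the value is the treated-group measurement divided by that of the vehicle-treated control group.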

[1] = dose: 25.0 mg/kg/injection, schedule: Q01DX005 (ip), vehicle: Klucel (hydroxypropylcellulose) (HPC)
[2] = dose: 50.0 mg/kg/injection, schedule: Q01DX005 (ip), vehicle: Klucel (hydroxypropylcellulose) (HPC)
[3] = dose: 50.0 mg/kg/injection, schedule: Q01DX009 (ip), vehicle: Klucel (hydroxypropylcellulose) (HPC)
[4] = dose: 100.0 mg/kg/injection, schedule: Q01DX009 (ip), vehicle: Klucel (hydroxypropylcellulose) (HPC)
[5] = dose: 200.0 mg/kg/injection, schedule: Q01DX009 (ip), vehicle: Klucel (hydroxypropylcellulose) (HPC)
[6] = dose: 50.0 mg/kg/injection, schedule: Q01DX009 (ip), vehicle: saline
[7] = dose: 100.0 mg/kg/injection, schedule: Q01DX009 (ip), vehicle: saline
[8] = dose: 200.0 mg/kg/injection, schedule: Q01DX009 (ip), vehicle: saline

Measured: T/C

COc1cccc2c1C(=O)c1c(O)c3c(c(O)c1C2=O)C[C@@](O)(C(O)CO)C[C@@H]3OC1CC(NCc2ccccc2)C(O)C(C)O1 (stereo not given in full)
active: dose: 0.39 mg/kg/injection, schedule: Q01DX009 (ip), vehicle: water 158 % of control and 167 % of control | dose: 0.78 mg/kg/injection, schedule: Q01DX009 (ip), vehicle: water 157 % of control and 162 % of control and 169 % of control | dose: 1.56 mg/kg/injection, schedule: Q01DX009 (ip), vehicle: water 157 % of control and 190 % of control and 196 % of control | dose: 3.13 mg/kg/injection, schedule: Q01DX009 (ip), vehicle: water 163 % of control and 176 % of control and 192 % of control
inactive: dose: 1.18 mg/kg/injection, schedule: Q04DX003 (ip), vehicle: water 106 % of control | dose: 2.35 mg/kg/injection, schedule: Q04DX003 (ip), vehicle: water 106 % of control | dose: 9.4 mg/kg/injection, schedule: Q04DX003 (ip), vehicle: water 116 % of control

O=C1CCN2CO[C@H](c3ccccc3)C[C@@H]2C1
inactive: dose: 12.5 mg/kg/injection, schedule: Q01DX005 (ip), vehicle: Klucel (hydroxypropylcellulose) (HPC) 103 % of control | [1] 102 % of control | [2] 102 % of control

O=NNc1ccc([N+](=O)[O-])cc1
active: dose: 25.0 mg/kg/injection, schedule: Q01DX009 (ip), vehicle: water 152 % of control | dose: 50.0 mg/kg/injection, schedule: Q01DX009 (ip), vehicle: water 159 % of control
inactive: dose: 3.12 mg/kg/injection, schedule: Q01DX009 (ip), vehicle: water 102 % of control | dose: 6.25 mg/kg/injection, schedule: Q01DX009 (ip), vehicle: water 112 % of control and 121 % of control

CC(=O)C(O)N1C(=O)C=CC1=O (stereo not given)
inactive: dose: 2.5 mg/kg/injection, schedule: Q01DX009 (ip), vehicle: saline with Tween-80 86 % of control | dose: 2.5 mg/kg/injection, schedule: Q04DX003 (ip), vehicle: saline 100 % of control | dose: 5.0 mg/kg/injection, schedule: Q04DX003 (ip), vehicle: saline 95 % of control | dose: 10.0 mg/kg/injection, schedule: Q04DX003 (ip), vehicle: saline 100 % of control

O=C(Nc1ccc(Cc2ccc(NC(=O)Nc3cccnc3)cc2)cc1)Nc1cccnc1
inactive: [3] 101 % of control | [4] 94 % of control | [5] 88 % of control

CN(C)c1n[nH]c(N)n1
inactive: dose: 12.5 mg/kg/injection, schedule: Q01DX009 (ip), vehicle: saline 101 % of control | dose: 25.0 mg/kg/injection, schedule: Q01DX009 (ip), vehicle: saline 103 % of control | [6] 108 % of control and 95 % of control and 97 % of control | [7] 103 % of control and 104 % of control and 108 % of control | [8] 105 % of control and 97 % of control | dose: 400.0 mg/kg/injection, schedule: Q01DX009 (ip), vehicle: saline 105 % of control and 111 % of control and 113 % of control

COc1ccc(-c2cc(-c3ccccc3)nc(-c3cccc([N+](=O)[O-])c3)c2)cc1
inactive: [3] 100 % of control | [4] 124 % of control | [5] 97 % of control

Cc1ccc2c(ccc(/C=C\c3cc(C)c4cccnc4c3O)[n+]2C)c1
inactive: dose: 0.78 mg/kg/injection, schedule: Q01DX009 (ip), vehicle: saline with Tween-80 124 % of control | dose: 1.56 mg/kg/injection, schedule: Q01DX009 (ip), vehicle: saline with Tween-80 122 % of control | dose: 3.13 mg/kg/injection, schedule: Q01DX009 (ip), vehicle: saline with Tween-80 121 % of control

CCCCCCCCCCCC[C@@H](O)[C@H]1CC[C@H]([C@H](O)CCCC[C@H](O)CCCCC[C@@H](O)CC2=C[C@H](C)OC2=O)O1
inactive: dose: 0.75 mg/kg/injection, schedule: Q01DX009 (ip), vehicle: other 113 % of control | dose: 1.5 mg/kg/injection, schedule: Q01DX009 (ip), vehicle: other 105 % of control

CCCC(=O)C(CC)C(O)(C(F)(F)F)C(F)(F)F (stereo not given)
inactive: [6] 104 % of control | [7] 104 % of control | [8] 109 % of control

CC(=O)NCC(C)c1ccccc1 (stereo not given)
inactive: dose: 25.0 mg/kg/injection, schedule: Q01DX009 (ip), vehicle: saline with Tween-80 102 % of control

COc1cc2c(cc1C[N+](C)(C)CSc1ccccc1)-c1ccccc1CC2
inactive: dose: 1.25 mg/kg/injection, schedule: Q01DX005 (ip), vehicle: DMSO 108 % of control | dose: 2.5 mg/kg/injection, schedule: Q01DX005 (ip), vehicle: DMSO 101 % of control | dose: 5.0 mg/kg/injection, schedule: Q01DX005 (ip), vehicle: DMSO 105 % of control

O=C1/C(=N\O)Cc2cc(Cl)ccc21
inactive: dose: 12.0 mg/kg/injection, schedule: Q01DX005 (ip), vehicle: Klucel (hydroxypropylcellulose) (HPC) 101 % of control | [1] 111 % of control | [2] 101 % of control and 97 % of control
